How the values were obtained:
Sphaerotheca fulginea = conditions: 150 grams per hectare; cucumber cultivar Bush Champion; scored seven days after inoculation
[1] = test system: Colletotrichum lagenarium; conditions: 150 grams per hectare; cucumber cultivar Bush Champion
[2] = test system: Puccinia recondita (f sp. tritici); conditions: 150 grams per hectare; wheat cultivar Fielder; evaluated after 12 days
[3] = test system: Pseudoperonospora cubensis; conditions: 9 grams per hectare; detached cucumber leaf; five days

Row | SMILES | percent disease control, cucumber powdery mildew (Sphaerotheca fulginea) [%] | percent disease control, cucumber anthracnose [1] [%] | percent disease control, wheat leaf rust [2] [%] | percent disease control, cucumber downy mildew [3] [%]
1 | CNC(=O)C(=NOC)c1ccccc1CON=C(C)C1CC1(C)c1ccccc1 (stereo not drawn) [Compound 3.11, (E,E and Z,E)-N-Methyl 2-[2-((trans-1-(2-phenyl-2-methyl-cyclopropyl)ethylidene)aminooxymethyl)phenyl]-2-methoxyiminoacetamide] | 100 | 100 | 100 | –
2 | CNC(=O)C(=NOC)c1ccccc1CON=C(C)C1CC1c1c(Cl)cccc1Cl (stereo not drawn) [Compound 9.1, N-Methyl 2-[2-((trans-1-(2-(2′,6′-dichlorophenyl)cyclopropyl)ethylidene)aminooxymethyl)phenyl]-2-methoxyiminoacetamide] | 100 | 100 | 100 | –
3 | CNC(=O)/C(=N/OC)c1ccccc1CO/N=C(\C)C1CC1(C)c1ccc(Cl)cc1 (centres unmarked) [Compound 3.14A, (E,E)-N-Methyl 2-[2-((1-(2-(4′-chlorophenyl)-2-methylcyclopropyl)ethylidene)aminooxymethyl)phenyl]-2-methoxyiminoacetamide] | 100 | 100 | 100 | –
4 | CNC(=O)C(=NOC)c1ccccc1CON=C(C)C1CC1c1c(F)cccc1F (stereo not drawn) [Compound 9.7A, N-Methyl 2-[2-((trans-1-(2-(2′,6′-difluorophenyl)cyclopropyl)ethylidene)aminooxymethyl)phenyl]-2-methoxyiminoacetamide] | 100 | 100 | 100 | 100
5 | CON=C(C(=O)OC)c1ccccc1CON=C(C)C1CC1c1c(Cl)cccc1Cl (stereo not drawn) [Compound 8.1, Methyl 2-[2-((trans-1-(2-(2′,6′-dichlorophenyl)cyclopropyl)ethylidene)aminooxymethyl)phenyl]-2-methoxyiminoacetate] | 100 | – | – | –

Reference: patent US6348627B1 (priority 1999, dated 2002)
